Results: patent US20250101062A1, “ANTIMICROBIAL PEPTIDES” (Board of Regents of the University of Nebraska, priority 2023, published 2025)
Read-outs that look alike come from different tables or passages of the source. Where no end group is shown, it is not given here.

How the values were obtained:
[1] = test system: S. aureus USA300 LAC; assay: microbe, parasite or virus in culture; format: cell-based, Staphylococcus aureus; conditions: for MIC: read-out: Antimicrobial activity (MIC)
Method: (§1) The following resistant bacterial clinical strains were used in this study: S. aureus USA300 LAC, S. epidermidis 1457, E. coli E423-17, P. aeruginosa E411-17, K. pneumoniae E406-17, and A. baumannii B28-16. While the S. aureus USA300 strain is methicillin-resistant, most of the Gram-negative bacteria contain extended-spectrum beta-lactamase and are resistant to beta-lactam antibiotics. Peptide activity against bacteria was tested using an established lab protocol (Mishra, et al. (2017) Acta Biomater., 49:316-328). In brief, a peptide concentration gradient with twofold dilution was made in the 96-well polystyrene microplate at 10 μL per well. Bacteria were grown to the exponential phase (i.e., optical density at 600 nm≈0.5), diluted to ˜10^5 CFU/mL in different percentages of MHB, TSB, or LB, and partitioned into the 96-well microplate at 90 μL per well. […] They were diluted with autoclaved distilled water to obtain different percentages. The microplates were incubated at 37° C. overnight and read on a ChroMate™ 4300 microplate reader at 600 nm (GMI, Ramsey, MN). The peptide concentration in the wells without bacterial growth is the MIC. As is the convention, MIC values were represented as ranges.
(§2) For pH effects on peptide activity, the pH of the medium was adjusted to a targeted pH for the autoclave and then remeasured at room temperature. For salt and serum effects on peptide activity, stock NaCl solution or human serum was added to the media.
(§3) Peptide activity against bacteria were tested using the CLSI standard procedure with minor modifications (Clinical and Laboratory Standards Institute (2018) Performance standards for antimicrobial susceptibility testing, 9th ed.; Mishra, et al. (2019) Proc. Natl. Acad. Sci., 116(27):13517-13522). In brief, a peptide concentration gradient with twofold dilution was made in the 96-well polystyrene microplate at 10 μL per well. Bacteria were grown to the exponential phase (i.e., optical density at 600 nm≈0.5), diluted to ˜10^5 CFU/mL in MHB, and partitioned into the 96-well microplate at 90 μL per well. The microplates were incubated at 37° C. overnight and read on a ChroMate® 4300 Microplate Reader at 600 nm (GMI, Ramsey, MN). The peptide concentration in the wells without bacterial growth is the minimal inhibitory concentration (MIC). As the convention, MIC values were represented as ranges.
(§4) For pH effects on peptide activity, the pH of the medium was adjusted to a targeted pH for autoclave and then remeasured at room temperature. For salt and serum effects on peptide activity, stock NaCl solution or human serum were added to the media.

[2] = test system: E. coli E423-17; format: cell-based, Escherichia coli
Method: as §1, §2, §3, §4

[3] = test system: K. pneumoniae E406-17; format: cell-based, Klebsiella pneumoniae
Method: as §1, §3

[4] = test system: A. baumannii B28-16; format: cell-based, Acinetobacter baumannii; conditions: B28-16
Method: as §1, §3

[5] = test system: P. aeruginosa E411-17; assay: microbe, parasite or virus in culture; format: cell-based, Pseudomonas aeruginosa; conditions: E411-17
Method: as §1, §2, §3, §4

[6] = test system: E. coli; conditions: data from the antimicrobial peptide database; cited from earlier work

## KRIVQRIK-NH2 [W538]
[1]; MHB 12.5%
  Antimicrobial activity (MIC): > 64 µM
[1]; USA300
  Activity (MIC) S. aureus: >32 µM
  MIC: >64 µM
[2]; E423-17
  Activity (MIC) E.coli: >32 µM
  Antimicrobial activity (MIC): >64 µM
[2]; MHB 12.5%
  Antimicrobial activity (MIC): 8 µM
[3]
  Activity (MIC) K. pneumoniae: >32 µM
[4]
  Activity (MIC) A. baumannii: >32 µM
[5]
  Activity (MIC) P. aeruginosa: >32 µM

## NGNLLGGLLRPVLGVVKGLTGGLGKK (Pleurodema thaul) [Thaulin-1]
[6]
  MIC against E. coli: 62.5 µg/mL

## RKSKEKIGK-NH2 (C-terminus assumed) [RK-9]
[1]; USA300
  MIC: >64 µM
[2]; E423-17
  Antimicrobial activity (MIC): >64 µM

## GGLKKLGKKLEGAGKRVFKASEKALPVVVGIKAIGK (listed as Aedes aegypti) [Aedesin]
[6]
  MIC against E. coli: 2 to 4 µg/mL

## KRIWQRIK-NH2 [W539]
[1]; USA300
  Activity (MIC) S. aureus: >32 µM
[2]; E423-17
  Activity (MIC) E.coli: >32 µM
[3]
  Activity (MIC) K. pneumoniae: >32 µM
[4]
  Activity (MIC) A. baumannii: >32 µM
[5]
  Activity (MIC) P. aeruginosa: >32 µM

## KEKIGKEFKR-NH2 (C-terminus assumed) [KE-10]
[1]; USA300
  MIC: >64 µM
[2]; E423-17
  Antimicrobial activity (MIC): >64 µM

## GVFDIIKGAGKQLIARAMGKIAEKVGLNKDGN (listed as Leptodactylus pustulatus) [Ocellatin-PT8]
[6]
  MIC against E. coli: 60 µM

## SWLSKTAKKLENSAKKRIAEGIAIAIQGGPR (listed as Anisakis sp.) [Anisaxin-3]
[6]
  MIC against E. coli: 0.5 to 1.0 µM

## LLGDFFRKSK-NH2 (C-terminus assumed) [LL-10]
[1]; USA300
  MIC: >64 µM

## KRIVQRIKDFLR-NH2 (C-terminus assumed) [KR-12]
[1]; MHB 12.5%
  Antimicrobial activity (MIC): active
[1]; MHB 100%
  Antimicrobial activity (MIC): did not display any activity
[1]; USA300
  Antimicrobial activity (MIC): 4 to 8 µM
  MIC: 4 µM
[2]; MHB 100%
  Antimicrobial activity (MIC): active

## GWLKKIGKKIERVGQHTRDATIQGLGIAQQAANVAATAR (Drosophila melanogaster) [Sarcotoxin IA]
[6]
  MIC against E. coli: 0.2 to 6.3 µg/mL

## RWKIFKKIEKVGQNIRDGIVKAGPAVAVVGQAATI (listed as Bombyx mori) [CM4]
[6]
  MIC against E. coli: 12 µM
